# Columns and labels:
# Type in all cases: cell-based
# [1] = target: Transforming growth factor beta-1 proprotein/Mothers against decapentaplegic homolog 3 (Mus musculus) (UniProt P04202+Q8BUN5); assay: Inhibition of TGF beta1/Smad3 signaling in mouse NIH/3T3 cells harboring CAGA promoter at 10 uM incubated for 18 hrs in presence of TGF-beta1 by luciferase reporter gene assay relative to control
# [2] = target: Transforming growth factor beta-1 proprotein/Mothers against decapentaplegic homolog 3 (Mus musculus, UniProt P04202+Q8BUN5); assay: Inhibition of TGF beta1/Smad3 signaling in mouse NIH/3T3 cells harboring CAGA promoter incubated for 18 hrs in presence of TGF-beta1 by luciferase reporter gene assay
# [3] = Cytotoxicity against mouse Mlg cells assessed as effect on cell viability up to 80 uM after 24 to 48 hrs by MTT assay
# Chain of Transforming growth factor beta-1 proprotein/Mothers against decapentaplegic homolog 3 (P04202 279-390 limits assumed): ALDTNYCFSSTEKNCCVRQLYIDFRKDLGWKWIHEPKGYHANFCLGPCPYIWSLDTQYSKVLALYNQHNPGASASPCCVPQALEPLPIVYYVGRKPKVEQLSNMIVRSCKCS
# Chain of Transforming growth factor beta-1 proprotein/Mothers against decapentaplegic homolog 3 (Q8BUN5 2-425 limits assumed): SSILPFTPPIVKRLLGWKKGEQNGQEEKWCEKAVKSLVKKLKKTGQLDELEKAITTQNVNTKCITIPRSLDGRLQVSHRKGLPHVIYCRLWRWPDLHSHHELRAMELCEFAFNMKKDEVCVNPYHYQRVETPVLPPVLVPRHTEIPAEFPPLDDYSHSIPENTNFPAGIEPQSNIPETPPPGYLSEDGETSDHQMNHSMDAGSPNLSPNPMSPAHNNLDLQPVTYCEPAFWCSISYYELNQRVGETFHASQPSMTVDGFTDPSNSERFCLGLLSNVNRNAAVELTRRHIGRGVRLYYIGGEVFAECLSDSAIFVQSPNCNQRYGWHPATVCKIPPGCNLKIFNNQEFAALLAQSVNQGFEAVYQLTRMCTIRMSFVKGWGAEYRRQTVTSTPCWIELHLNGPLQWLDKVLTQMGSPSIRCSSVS
# Chain of Transforming growth factor beta-1 proprotein/Mothers against decapentaplegic homolog 3 (Mus musculus) (P04202 279-390 limits assumed): as the sequence (P04202 279-390 limits assumed) above
# Chain of Transforming growth factor beta-1 proprotein/Mothers against decapentaplegic homolog 3 (Mus musculus) (Q8BUN5 2-425 partner limits assumed): as the sequence (Q8BUN5 2-425 limits assumed) above
SMILES,inhibition [1],IC50 [2],Activity [3]
COc1ccc(C2CC(=O)c3c(O)cc(O)c(C)c3O2)cc1 (stereo not given),93.1%,380 nM,Non-Toxic
CC1(C)C[C@H]2[C@H]1CC[C@@]1(C)C[C@]2(O)CC[C@@H]1O,67.9%,3670 nM,Non-Toxic
C=C1CC[C@@H](O)[C@]2(C)CC[C@H](C(C)C)[C@@H](O)[C@H]12,–,–,Non-Toxic
Cc1ccc(=O)n(-c2ccccc2)c1 [PIRFENIDONE],–,1430 nM,–
C=C1CCC(=O)[C@]2(C)CC[C@@H](C(C)C)[C@@H]2C1O (stereo not given in full),–,–,Non-Toxic
CO[C@@]12CC[C@@H](O)[C@@](C)(CC[C@@H]3[C@@H]1CC3(C)C)C2,–,–,Non-Toxic
C=C1CC[C@@H](O)[C@]2(C)CC[C@@H](C(C)C)[C@H](O)[C@@H]12,–,–,Non-Toxic
CC(C)[C@@H]1CC[C@@]2(C)[C@H](O)CCC(C=O)=C[C@H]12,–,–,Non-Toxic
CC(C)[C@H]1CC[C@@]2(C)[C@@H]1[C@@H]1O[C@]1(CO)CC[C@@H]2O [SANICULAMOID B],–,–,Non-Toxic
CC(C)[C@@H]1CC[C@@]2(C)[C@H](O)CCC(CO)=C[C@@H]12,–,–,Non-Toxic
C=C[C@](C)(O)CC[C@H]1C(=C)C[C@H](O)[C@H]2C(C)(C)CCC[C@]12C,–,–,Non-Toxic
Cc1cccc(-c2[nH]c(C(C)(C)C)nc2-c2ccc3nccnc3c2)n1,–,70.5 nM,Toxic
CC(C)[C@@H]1CC[C@@]2(C)C(=O)CCC(C=O)=C[C@@H]12,–,–,Non-Toxic
CC(=O)[C@@H]1CC[C@H]2[C@H]1[C@@H](C(C)C)CC[C@]2(C)O,–,–,Non-Toxic
CC(C)[C@@H]1CC[C@@]2(C)[C@H](O)CC[C@@]3(O)CO[C@@H]1[C@@H]32,–,–,Non-Toxic
